Assay results from the supplement of paper PMC9938120.

Legend:
Test in all cases: drug sensitivity score (DSS3, normalised partial AUC of % inhibition dose-response) (DSS (score)); higher = more sensitive (stronger inhibition of viability); extreme values may be limits of the assay
[1] = test system: FMOC25_1 (patient-derived low-grade serous ovarian cancer cells); details: 72 h; library: FO4B; assay format: 2D, 384-well, CellTiter-Glo
Method in brief: (§1)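 Cells were dispensed onto 384-well flat clear-bottom plates already holding compounds at five concentrations over a 10,000-fold range, using patient-derived ovarian cancer cells at passage under 10. Incubation lasted 72 h at 37 °C in 5% CO2, after which CellTiter-Glo viability data were processed in Breeze. Higher drug sensitivity scores, each a partial area under the percent-inhibition dose-response curve divided by the log of the upper asymptote, mean more sensitive cells.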

[2] = test system: FMOC17 (patient-derived low-grade serous ovarian cancer cells); details: 72 h; library: FO5A; assay format: 2D, 384-well, CellTiter-Glo
Method in brief: as §1

[3] = test system: FMOC04 (patient-derived high-grade serous ovarian cancer cells); details: 72 h; library: FO5A; assay format: 2D, 384-well, CellTiter-Glo
Method in brief: as §1

[4] = test system: FMOC02_3 (patient-derived low-grade serous ovarian cancer cells); details: 72 h; library: FO5A; assay format: 2D, 384-well, CellTiter-Glo
Method in brief: as §1

[5] = test system: FMOC22 (patient-derived mucinous ovarian cancer cells); details: 72 h; library: FO5A; assay format: 2D, 384-well, CellTiter-Glo
Method in brief: as §1

[6] = test system: FMOC11 (patient-derived high-grade serous ovarian cancer cells); details: 72 h; library: FO5A; assay format: 2D, 384-well, CellTiter-Glo
Method in brief: as §1

[7] = test system: FMOC09 (patient-derived high-grade serous ovarian cancer cells); details: 72 h; library: FO5A; assay format: 2D, 384-well, CellTiter-Glo
Method in brief: as §1

[8] = test system: FMOC14 (patient-derived high-grade serous ovarian cancer cells); details: 72 h; library: FO5A; assay format: 2D, 384-well, CellTiter-Glo
Method in brief: as §1

[9] = test system: FMOC02_1 (patient-derived low-grade serous ovarian cancer cells); details: 72 h; library: FO5A; assay format: 2D, 384-well, CellTiter-Glo
Method in brief: as §1

[10] = test system: FMOC27 (patient-derived low-grade serous ovarian cancer cells); details: 72 h; library: FO5A; assay format: 2D, 384-well, CellTiter-Glo
Method in brief: as §1

[11] = test system: FMOC28 (patient-derived low-grade serous ovarian cancer cells); details: 72 h; library: FO5A; assay format: 2D, 384-well, CellTiter-Glo
Method in brief: as §1

[12] = test system: FMOC03 (patient-derived mucinous ovarian cancer cells); details: 72 h; library: FO5A; assay format: 2D, 384-well, CellTiter-Glo
Method in brief: as §1

[13] = test system: FMOC06 (patient-derived mucinous ovarian cancer cells); details: 72 h; library: FO5A; assay format: 2D, 384-well, CellTiter-Glo
Method in brief: as §1

[14] = test system: FMOC02_2 (patient-derived low-grade serous ovarian cancer cells); details: 72 h; library: FO5A; assay format: 2D, 384-well, CellTiter-Glo
Method in brief: as §1

[15] = test system: FMOC25_2 (patient-derived low-grade serous ovarian cancer cells); details: 72 h; library: FO5A; assay format: 2D, 384-well, CellTiter-Glo
Method in brief: as §1

[16] = test system: FMOC24 (patient-derived high-grade serous ovarian cancer cells); details: 72 h; library: FO5A; assay format: 2D, 384-well, CellTiter-Glo
Method in brief: as §1

SMILES | drug sensitivity score [1] | drug sensitivity score [2] | drug sensitivity score [3] | drug sensitivity score [4] | drug sensitivity score [5] | drug sensitivity score [6] | drug sensitivity score [7] | drug sensitivity score [8] | drug sensitivity score [9] | drug sensitivity score [10] | drug sensitivity score [11] | drug sensitivity score [12] | drug sensitivity score [13] | drug sensitivity score [14] | drug sensitivity score [15] | drug sensitivity score [16]
c1cn2cc(-c3ccc4cn[nH]c4c3)nc(Nc3ccc(N4CCOCC4)cc3)c2n1 [Entospletinib] | 0.1 | 1.8 | 0 | 0 | 0 | 0.7 | 0 | 0 | 4.3 | 0 | 0 | 0 | 0 | 3.2 | 0 | 0
Cc1cc2c(F)c(Oc3ncnn4cc(OC[C@@H](C)O)c(C)c34)ccc2[nH]1 [Brivanib] | 0 | 0 | 0 | 0 | 0 | 0 | 0 | 0 | 0 | 0 | 0 | 0 | 0 | 0 | 0 | 0
N#CC[C@H](C1CCCC1)n1cc(-c2ncnc3[nH]ccc23)cn1 [Ruxolitinib] | 0 | 0 | 0 | 0 | 0 | 0 | 0 | 0 | 0.5 | 0 | 0 | 0 | 0 | 0.3 | 0 | 1.6
O=C(c1ccc(C(=O)N2CCC(N3CCCC3)CC2)c(Nc2ccccc2)c1)N1CCC(N2CCCC2)CC1 [UNC1215] | 0 | 0 | 0 | 0 | 0 | 0 | 0 | 0 | 0 | 0 | 0 | 0 | 0 | 0.3 | 0 | 0
CNC(=O)[C@@H](NC(=O)[C@H](CC(C)C)[C@H](O)C(=O)NO)C(C)(C)C [Marimastat] | 0.6 | 0 | 0 | 0 | 0 | 0.4 | 0.1 | 0 | 0.9 | 0 | 0 | 0 | 0 | 0 | 3.6 | 0
C[C@@H]1CCN(C(=O)CC#N)C[C@@H]1N(C)c1ncnc2[nH]ccc12 [Tofacitinib] | 0 | 0 | 0 | 0.1 | 0 | 0 | 0 | 0 | 0 | 0 | 0.7 | 0 | 0.7 | 0.7 | 0.3 | 0.5
CC[C@H](C)C(=O)O[C@H]1C[C@@H](C)C=C2C=C[C@H](C)[C@H](CC[C@@H]3C[C@@H](O)CC(=O)O3)[C@H]21 [Lovastatin] | 0 | 1.1 | 0 | 3.9 | 2.1 | 1.3 | 3.3 | 0 | 0 | 0 | 0.1 | 0.5 | 0.9 | 0.3 | 1 | 2.5
CC/C(=C(\c1ccccc1)c1ccc(OCCN(C)C)cc1)c1ccccc1 [Tamoxifen] | 2.3 | 3 | 3.75 | 4.8 | 3.2 | 3.9 | 1.6 | 4 | 6.5 | 3.1 | 2.6 | 4.3 | 5.2 | 3.8 | 2.4 | 7.35
C[C@H]1C[C@@H]2[C@H]([C@@H](O)C[C@@]3(C)[C@H]2CC[C@]3(O)C(=O)CO)[C@@]2(C)C=CC(=O)C=C12 [Methylprednisolone] | 0 | 0 | 0 | 0 | 0 | 0.6 | 0.1 | 0 | 0 | 0 | 0 | 0 | 0.1 | 0 | 0 | 0
CCC(C)n1ncn(-c2ccc(N3CCN(c4ccc(OCC5COC(Cn6cncn6)(c6ccc(Cl)cc6Cl)O5)cc4)CC3)cc2)c1=O (stereo not drawn) [Itraconazole] | 4 | 4.8 | 0.1 | 6.6 | 0.2 | 1.2 | 0.8 | 1.3 | 5.3 | 0.6 | 4.4 | 4.5 | 0.7 | 3 | 4.6 | 4.9
C[C@]1(c2nc3c(C(N)=O)cccc3[nH]2)CCCN1 [Veliparib] | 0.1 | 0 | 0 | 3.2 | 0 | 0 | 0 | 0 | 0.4 | 1.4 | 0 | 0 | 0 | 1.6 | 1.6 | 1.3
COc1cc2/c(=N/c3ccc(Br)cc3F)nc[nH]c2cc1OCC1CCN(C)CC1 [Vandetanib] | 1.4 | 6.2 | 0.55 | 5.1 | 0 | 3.1 | 3.1 | 0.1 | 5.6 | 4.8 | 2.1 | 2.7 | 0.7 | 6.3 | 4.1 | 1.7
CCCOc1ccn2c(C(C)=O)cc(-c3ccccc3S(C)(=O)=O)c2c1 [GSK2801] | 0 | 0 | 0 | 0 | 0 | 0 | 0 | 0 | 0 | 0 | 4.9 | 0 | 0 | 0.1 | 1.5 | 0
Nc1cccc2c1CN(C1CCC(=O)NC1=O)C2=O (stereo not drawn) [Lenalidomide] | 0 | 0 | 0 | 2.4 | 0 | 0 | 0 | 0 | 0 | 0 | 0 | 0 | 0.1 | 0 | 0 | 0.6
COC(=O)c1ccc2c(c1)[nH]c1ncnc(NCCCN3CCCCC3)c12 [UM729] | 0 | 0.2 | 0.1 | 2.2 | 0 | 1.1 | 0 | 0.1 | 4.7 | 0.5 | 3.1 | 0 | 0 | 3.5 | 1.8 | 0.6
CNC(=O)c1ccc2cc([C@@]3(O)CCn4cncc43)ccc2c1 [Orteronel] | 0 | 0 | 0 | 0 | 0 | 0 | 0 | 0 | 0 | 0 | 0.2 | 0 | 0 | 0 | 1.4 | 0
CCN(CC)CCN(Cc1ccc(-c2ccc(C(F)(F)F)cc2)cc1)C(=O)Cn1c(SCc2ccc(F)cc2)nc(=O)c2c1CCC2 [Darapladib] | 0.1 | 0 | 0.25 | 1.6 | 0 | 0.1 | 0 | 1.3 | 0 | 0 | 1.2 | 0 | 0 | 0 | 0 | 4.2
O=C(c1cccc(Cl)c1F)N1CCN(Cc2cccc(Nc3nccs3)n2)CC1 [MK-8745] | 0 | 2.1 | 1.3 | 5.7 | 1.8 | 4 | 0.2 | 0.2 | 7.1 | 0 | 5.8 | 1.3 | 0 | 6.1 | 4 | 0.2
C[C@@H]1C[C@H]2[C@@H]3CCC4=CC(=O)C=C[C@]4(C)[C@@]3(F)[C@@H](O)C[C@]2(C)[C@@]1(O)C(=O)CO [Dexamethasone] | 0 | 1.3 | 0 | 0 | 0 | 0 | 0 | 0 | 0 | 0 | 0 | 0 | 0 | 0 | 0 | 0
CN1CCN(C2CCN(C(=O)Nc3cc(Oc4ccc(NC(=O)C5(C(=O)Nc6ccc(F)cc6)CC5)c(F)c4)ccn3)CC2)CC1 [Golvatinib] | 0.9 | 0.2 | 0.7 | 2.2 | 0 | 0 | 0 | 0 | 1.2 | 0 | 0 | 0.5 | 0 | 1.2 | 4.3 | 3.35
COc1cc2nccc(Oc3ccc(NC(=O)C4(C(=O)Nc5ccc(F)cc5)CC4)cc3)c2cc1OC [Cabozantinib] | 0 | 0 | 0 | 0 | 0 | 0 | 0 | 0 | 1 | 0.8 | 0 | 0 | 0 | 0.1 | 0 | 4.45
Clc1ccccc1C(c1ccccc1)(c1ccccc1)n1cccn1 [TRAM-34] | 0 | 0 | 0 | 0 | 0 | 0 | 0 | 0 | 0 | 0 | 1.5 | 0 | 0 | 0 | 0 | 0
c1cc(CN2CCCNCCNCCCNCC2)ccc1CN1CCCNCCNCCCNCC1 [Plerixafor] | 0 | 0 | 0 | 0 | 0 | 0 | 0 | 0 | 0 | 0 | 0 | 0 | 0 | 0 | 0 | 0
